Test results published in patent US20220288197A1, “METHODS OF TREATING A SUBJECT WITH A CDC42-SPECIFIC INHIBITOR” (Children’s Hospital Medicai Center, priority 2019, published 2022).
Entries after “also recorded” stand apart in the source; their conditions may differ. Like-named read-outs stand apart in the source and are kept apart here.

Assays:
Cdc42 = biological target: T1, Cdc42 (Mus musculus, UniProt P60766); assay: Cdc42-GTPase effector domain pull-down assay in bone marrow cells after systemic in vivo treatment; design: species or system C57BL/6 mice; conditions: FIG. 1c
T1 construct: lineage depleted BM cells (10^6) were lysed in a Mg^2+ lysis/wash buffer; from tissue; host or cells: lineage-depleted bone marrow cells of C57BL/6 mice treated in vivo with CASIN
T1 sequence (P60766 whole entry, the tested form may be a part): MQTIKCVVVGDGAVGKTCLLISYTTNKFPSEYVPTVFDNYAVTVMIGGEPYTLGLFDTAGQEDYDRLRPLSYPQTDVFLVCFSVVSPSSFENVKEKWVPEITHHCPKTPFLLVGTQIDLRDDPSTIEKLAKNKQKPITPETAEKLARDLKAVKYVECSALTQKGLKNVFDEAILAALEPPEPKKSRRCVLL
Method: Cdc42-GTPase effector domain pull-down assays. Relative levels of GTP-bound Cdc42 were determined by an effector pull-down assay. Briefly, lineage depleted BM cells (10^6) were lysed in a Mg^2+ lysis/wash buffer (Upstate cell signaling solutions) containing 10% glycerol, 25 mM sodium fluoride, 1 mM sodium orthovanadate and a protease inhibitor cocktail (Roche Diagnostics). Samples were incubated with PAK-1 binding domain/agarose beads and bound (activated) as well as unbound (non-activated) Cdc42 fractions were probed by immunoblotting with an anti-Cdc42 antibody (Millipore, rabbit polyclonal). Activated protein was normalized to total protein and/or 3-actin (Sigma) and the relative amount was quantified by densitometry.
(§1) Accordingly, chronic toxicity issues from the administration of inhibitor was unlikely. […] Furthermore, CASIN treatment reversed Cdc42 activity in the aged mice cohort to an approximate level of activity seen in the young mice control cohort. Thus, CASIN treatment generally reverted Cdc42 activity levels in aged mice to the level existing in mice approximately 60 weeks younger in age.

[1] = Toxicity, weight and peripheral blood counts in the lifespan study; format: in vivo
From the text: (§2) Mice. Mice included in the study were female C57BL/6 and were obtained from the internal divisional stock (derived from C57BL/6j mice obtained from both The Jackson Laboratory and NIA/Charles River as well as from C57BL/6JRj mice from Janvier). For the longevity study described herein, 40 mice were randomly selected at 70 weeks of age. Mice were weighed and bled before the beginning of the treatment (day 0) and at day 7 and 35. […] Mice that needed to be euthanized because they were scored as “weak and about to die” according to our approved animal license protocol for evaluating mouse health status remained part of the dataset. Allocation to control or treated group was done randomly (20 mice each experimental group).
Flow cytometry of Peripheral Blood (PB). PB cell immunostaining was performed according to standard procedures and samples were analyzed on a LSRII flow cytometer (BD Biosciences). For PB lineage analysis, the antibodies used were from eBioscience: anti-CD3ε (clone 145-2C11), anti-B220 (clone RA3-6B2), anti-Mac-1 (clone M1/70) and anti-Gr-1 (clone […]). Lineage FACS analysis data were plotted as the percentage of B220+, CD3+ and Myeloid (Gr-1+, Mac-1+ and Gr-1+Mac-1+) cells among total white blood cells. WBC (white blood cell), RBC (red blood cell), Ly (lymphocytes), NE (neutrophils), and Mo (monocyte) counts were generated by using the hemocytometer Hemavet 950, DREW SCIENTIFIC Inc, (FL 33014), USA.
as §1
(§3) Cytokine array analyses were performed to investigate the extent to which aging-associated inflammatory cytokines in serum of aged mice were affected by CASIN treatment.

[2] = test system: aging-associated inflammatory cytokines in serum; assay: Cytokine array (Luminex) of serum of aged mice; format: in vivo, C57BL/6 mice
Method: (§4) CASIN solution and IP treatment. CASIN was prepared fresh before injection by dissolving the drug directly in beta-cyclodextrin solution (Sigma #H5784). IP injections were performed in the morning, every 24 hours, for 4 consecutive days during week 75 of age of the mice. Control mice were injected with equal volume of the solvent. Serum for the cytokine array was prepared from the day 7 bleeding point. Serum for mass spectrometry analysis of CASIN levels was prepared by bleeding an equal (for sex, strain, origin and age) cohort of mice 3 hours, 24 hours, and 48 hours after the end of the treatment. The same stock of CASIN was used for the entire study. CASIN was provided as lyophilized powder.
Cytokine array. Lumimex Method. Cytokine concentrations in the sample supernatants were determined by using Milliplex™ Multiplex kits (MilliporeSigma, Darmstadt, Germany) according to manufacturer's protocol. Briefly, in a 96 well black plate, 25 μL sample in duplicate was incubated with 25 μL antibody coated beads overnight at 4° C. on a plate shaker. Plates were then washed 2 times using BioTek 405 TS (BioTek, Winooski, Vt.) and 25 μL of secondary antibody was added and incubated at room temperature for 1 hour while shaking. Finally, 25 μL of streptavidin-RPE was added directly to the secondary antibody and incubated for 30 minutes at room temperature with shaking. Plates were then washed 2 more times and 150 μL of sheath fluid was added. Plates were shaken for 5 minutes and then read using luminex technology on the Milliplex Analyzer (MilliporeSigma, Darmstadt, Germany). Concentrations were calculated from standard curves using recombinant proteins and expressed in pg/ml.
as §3

[3] = test system: inactivated influenza virus (H3N2); assay: Viral vaccination response, inactivated influenza virus, antibody titer by ELISA; format: in vivo, C57BL/6 mice; conditions: aged mice, 21 days after the second vaccination, immunized 12 weeks post CASIN treatment, FIG. 5(D)
Method: (§5) Briefly, 75 week-old C57BL/6 mice (referred to in the results as “Old”) and 12-16 week old mice (referred to in the results as “young”) were injected intraperitoneal (“IP”) every 24 hours for four days with a Cdc42-specific inhibitor (e.g., CASIN) at a dosage of interest (e.g., 25 mg/kg) or with solvent as a control group (referred to in the results as “Solvent”). On the fifth day, mice were treated with 5-fluorouracil (“5-FU”). Two methods of vaccination were investigated.
For viral vaccination, animals were immunized twice at an interval of 4 weeks with inactivated influenza virus (10 μg H3N2+10 μL Al(OH)3) i.m. 12 weeks post CASIN treatment. The antibody titer was determined in serum 21 days after the second vaccination using ELISA technology. n=at least 3 per experiment.

[4] = LC-MS/MS measurement of CASIN pharmacokinetics in mouse serum; format: in vivo, C57BL/6 mice; conditions: for concentration at 3 h: female, C57BL/6, mouse, serum, intraperitoneal, 25 mg/kg
Method: as §4, with “Serum for mass spectrometry analysis of CASIN levels was prepared by bleeding an equal (for sex, strain, origin and age) cohort of mice 3 hours, 24 hours, and 48 hours after the end of the treatment.” left out
Liquid Chromatography-Mass Spectrometry (LC-MS/MS) measurements of CASIN pharmacokinetics in mouse serum. A LC/MS/MS ion chromatography protocol was employed to measure serum CASIN concentration ranging 0.1-10 μM by comparing serum CASIN from i.p. injected mice at varying times with a standard curve derived by in vitro spiking of mouse serum with defined doses of CASIN. An Autosampler maximum recovery vials with caps (Waters), an UPLC-MS system (Waters Quattro Premier XE mass spectrometry with ACQUITY UPLC system), an Acquity BEH C18 UPLC column (2.1×75 mm, 1.7 μm) (Waters), and an Acquity BEH C18 UPLC guard column (Waters) were used. For LC gradient, solvent A contained acetonitrile/water (5/95) with 2 mM ammonium acetate and solvent B contained acetonitrile/water (90/10). The gradient mobile phase switched from 60% solvent A to 57% solvent A over 2 min, to 50% solvent A at 2.1 min, to 46% solvent A over 9.9 min, and then, after changing to 30% at 12.1 min, to 1% solvent A over 5.9 min, then to 60% solvent A at 18.1 min and this was held for 2 min. Column temperature was kept at 25° C. The capillary voltage was 3 KV for electrospray negative (ES-) mode, cone voltage is 45 V, collision 30 V, desolvation temperature, 350° C.; desolvation gas flow is 600 L/h; source temperature was 120° C.; and MRM transition m/z is 305.1->244.
(§6) To determine that a short-term systemic treatment of aged animals with a Cdc42-specific inhibitor would regulate lifespan, CASIN was administered i.p. every 24 hours for 4 consecutive days to 75-week old female C57BL/6 mice (FIG. 1a). CASIN levels in serum were monitored via liquid chromatography-mass spectrometry (FIGS. 2a and 2b). A 50 mg/kg single dose resulted initially in a concentration of about 10 μM in serum (data not shown).

[5] = test system: hepatitis B virus (HBV) core antigen; assay: DNA vaccination response with pCI/C DNA encoding HBV core antigen; format: in vivo, C57BL/6 mice; conditions: aged mice, 13 days after immunization, OLD Solvent vs. OLD CASIN, p<0.05, FIG. 5(B)
Method: as §5
For DNA vaccination: 12 weeks after transplantation, recipient mice were immunized with pCI/C DNA encoding the hepatitis B virus (“HBV”) core antigen. FIG. 5(B) provides the results for DNA vaccination with the HBV core antigen 13 days after immunization along with an ovalbumin (“Ova”) specific immune response. The frequency of interferon gamma positive CD3^+CD8^+ T-cells was analyzed, which is an established surrogate measurement for the success of DNA vaccination protocols. […] In FIG. 5(C), splenic K^b/C93-100-dimer^+ CD8^+ T-cell frequencies were determined by flow cytometry 13 days post-immunization with the HBV core antigen. These T-cell frequencies are a direct measurement of antigen-specific T-cells.

[6] = test system: 75-week old female C57BL/6 mice; assay: Lifespan (longevity) study of aged mice, 4-day i.p. treatment; format: in vivo
From the text: as §2
Median lifespan, 95% confidence intervals and survival analysis were calculated by Prism GraphPad v7.0c. Of note, the median lifespan of the control group matched data obtained for C57BL/6j mice in a large set of lifespan studies of diverse inbred mouse strains. […]
as §6, with “A 50 mg/kg single dose resulted initially in a concentration of about 10 μM in serum (data not shown).” left out

SMILES: OCCNC1CCCc2c1[nH]c1ccc(-c3ccccc3)cc21 (stereo not shown) [CASIN]
- Cdc42-GTP in aged bone marrow cells (Cdc42; 24 hours after the last injection, aged mice): reduction of Cdc42-GTP in aged bone marrow cells to the level seen in young
- decrease of Cdc42 activity (Cdc42; with no regard to the age of mouse): approximately half
- red blood cell count (RBC) ([1]; day 7 and day 35, FIG. 2e): did not change
- white blood cell count (WBC) ([1]; day 7 and day 35, FIG. 2d): did not change
- frequency and count of myeloid and lymphoid cells in peripheral blood (PB) ([1]; day 7 and day 35, FIGS. 2f-k): did not change
- weight ([1]; day 7 and day 35 after beginning of treatment, FIG. 2c): did not change
- acute toxicity ([1]; four days of consecutive i.p. injections, 25 mg/kg, aged mice): did not induce acute toxicity
- deaths of treated mice after CASIN injections ([1]; within 4 weeks after injections): none of the treated mice died
- GM-CSF concentration in serum ([2]; day 7, FIG. 3): trend to be reduced
- IL-2 concentration in serum ([2]; day 7, FIG. 3): trend to be reduced
- IL-9 serum concentration ([2]; day 7, FIG. 1h): increased in serum concentration
- antibody titer in serum [3]: increase in antibody titer; also recorded: approximately equal to that seen in young mice
- CASIN remaining in serum at the end of the 48 hour window ([4]; 25 mg/kg i.p. for 4 consecutive days, 48 hours): approximately no CASIN remaining in serum
- CASIN concentration in serum ([4]; 50 mg/kg single dose, initially (data not shown)): about 10 μM
- concentration at 3 h ([4]; 25 mg/kg i.p. for 4 consecutive days, 48 hour window of analysis, 3 hours, read-out: concentration of CASIN in serum after 3 hours): ~2 µM
- concentration at 3 h ([4]; 25 mg/kg i.p., old mice, 3 hours after injection, FIG. 2b, read-out: levels of CASIN in serum 3 hours after injection): ~5 µM
- frequency of interferon gamma positive CD3+CD8+ T-cells [5]: statistically significant increase in immune response
- Median survival ([6]; aged mice treated at week 75, 25 mg/kg i.p. 4 consecutive days, n=17, control 123.5 weeks): 136 weeks
- average and maximum lifespan ([6]; aged mice treated for 4 consecutive days, FIG. 1d): extension of both their average and maximum lifespan
